Experimental data as given in patent publication US20140357512A1, “HISTONE DEACETYLASE (HDAC) BIOMARKERS IN MULTIPLE MYELOMA” (priority 2013, published 2014).

Test system: human myeloma cell line MM.1S
Test: SILAC acetylated-lysine peptide profiling, HDAC inhibitor vs DMSO (light/heavy ratio)
Format: cell-based
Excerpt: An embodiment of the invention comprises utilizing the SILAC method in order to quantitate changes in protein expression between two or more populations of cells. The SILAC method is a technique based on mass spectrometry that detects differences in protein abundance among samples using non-radioactive isotopic labeling. The SILAC method is known in the art, and described in detail in Ong et al., “Stable Isotope Labeling by Amino Acids in Cell Culture, SILAC, as a Simple and Accurate Approach to Expression Proteomics”, Molecular & Cellular Proteomics, vol. 1, pp. 376-386 (2002), which is incorporated herein by reference in its entirety.
Briefly, the SILAC method involves growing two populations of cells in cell culture. The first population of cells is grown in growth media containing normal amino acids (“normal media”). The second population of cells is grown in media lacking a standard essential amino acid (such as lysine), but is then supplemented with a non-radioactive, isotopically labeled form of that essential amino acid (such as lysine labeled with ^13C atoms, rather than normal ^12C atoms), which is called “heavy media”. When the two populations of cells are each growing in the medium, they incorporate the amino acids into all of their proteins. The growth of cells maintained in the heavy media is no different from that in normal media. All peptides containing the heavy amino acids are heavier than their normal counterparts. The cells from each of the two populations of cells are lysed. The lysates from each of the two cell populations are then combined. The combined cell lysates are then analyzed by mass spectrometry. Pairs of chemically identical peptides of different stable isotope composition can be differentiated in a mass spectrometer due to their difference in mass. The ratio of peak intensities in the mass spectrum for such peptide pairs reflects the abundance ratio for the two proteins.
This example describes SILAC studies that were performed to compare the effects of three different HDAC inhibitors (Compound A, Compound B, and tubastatin A) to a control on a human multiple myeloma cell line. The HDAC inhibitors were also compared amongst themselves to determine differences in their effects.
A human myeloma cell line MM.1S was grown using either ^12C (light) or ^13C (heavy) lysine containing culture medium. The “heavy” cells were treated with DMSO as the control, and the “light” cells were treated with a single HDAC inhibitor at 37° C. for 6 hours. The heavy and light cells were lysed, and the lysates were mixed in 1:1 ratio and digested with the protease trypsin. The acetylated lysine containing peptides (due to the action of the HDAC inhibitor) in the digested peptide pool were captured by a non-specific anti-acetylated lysine antibody cocktail (the antibodies identify both light and heavy acetylated peptides), and subjected to mass spectrometry analysis in order to identify thousands of individual peptides.
Thousands of peptides were identified in pairs (^12C and ^13C) due to their known mass differences. The amino acid sequence and quantitative ratio (Light/Heavy) of a given peptide in two differentially treated cell lysates were then determined and annotated with their possible protein (gene) sources.
As stated above, three HDAC inhibitors (Compound A, Compound B, and Tubastatin A) were used. Thus, the SILAC method was performed three times, with a different HDAC inhibitor compared to a control each time. Accordingly, there are three pairs of quantitative data in the table below, i.e., Compound A:DMSO, Compound B:DMSO, and Tubastatin A:DMSO. A cut-off of 1.30 fold of change (increase or decrease) was then used to determine “changed” or “+” in the table, and any peptides with a fold of change less than 1.3 fold were determined to be “unchanged” or “0” in the table. Those peptides that were not identified were marked as “NA” in the table. […]

Structure (SMILES): O=C(NO)c1cnc(NC2(c3cccc(F)c3)CCCCC2)nc1 [Compound B, 2-((1-(3-fluorophenyl)cyclohexyl)amino)-N-hydroxypyrimidine-5-carboxamide]
- light to heavy ratio (L/H ratio) of acetylated peptide, log 2 scale (FLNAENAQK(ac)FK (SEQ ID NO: 200), Ran-specific GTPase-activating protein [150], RANBP1): 0.00
- light to heavy ratio (L/H ratio) of acetylated peptide, log 2 scale (FNQK(ac)GEVYK (SEQ ID NO: 149), Lipoamide acyltransferase component of branched-chain alpha-keto acid dehydrogenase complex mitochondrial [435], DBT): 0.00
- light to heavy ratio (L/H ratio) of acetylated peptide, log 2 scale (FPHSAHQK(ac)YVR (SEQ ID NO: 253), Ribosomal protein L14 variant [71], RPL14): 0.00
- L/H ratio of acetylated peptide (FQAK(ac)[…] (SEQ ID NO: 415), Microtubule-associated protein RP/EB family member 1 [66], MAPRE1): −1.00 log 2
- light to heavy ratio (L/H ratio) of acetylated peptide, log 2 scale (FWNK(ac)FLENK (SEQ ID NO: 187), NADH dehydrogenase [ubiquinone] 1 beta subcomplex subunit 6 [49], NDUFB6): 0.00
- light to heavy ratio (L/H ratio) of acetylated peptide AVDLIQK(ac)HK (SEQ ID NO: 546) (Flap endonuclease 1 [252], gene FEN1, inhibitor:DMSO): 0.00 log 2
- light to heavy ratio (L/H ratio), log 2 scale, acetylated peptide GGVVGIK(ac)VDK (SEQ ID NO: 774) (Fructose-bisphosphate aldolase A [108], gene ALDOA, drug:DMSO): 0.00
- L/H ratio of acetylated peptide ASGLAAGK(ac)GVIVAK (SEQ ID NO: 37) (GART [156], log 2 scale, drug vs DMSO): 0.00
- light to heavy ratio (L/H ratio) of acetylated peptide, log 2 scale (GDASK(ac)EDIDTAMK (SEQ ID NO: 161), Isoform 1 of Hydroxyacyl-coenzyme A dehydrogenase mitochondrial [241], HADH): 0.00
- light to heavy ratio (L/H ratio) of acetylated peptide, log 2 scale (GDGTGGK(ac)SIYGER (SEQ ID NO: 196), Peptidyl-prolyl cis-trans isomerase B [116], PPIB): 0.00
- light to heavy ratio (L/H ratio) of acetylated peptide, log 2 scale (GFGGK(ac)YGVER (SEQ ID NO: 162), Hematopoietic lineage cell-specific protein [123], HCLS1): 0.00
- light to heavy ratio (L/H ratio) of acetylated peptide, log 2 scale (GIVK(ac)DIIHDPGR (SEQ ID NO: 207), 60S ribosomal protein L8 [46], RPL8): 0.00
- L/H ratio of acetylated peptide (GK(ac)LEEQRPER (SEQ ID NO: 459), Tumor protein translationally-controlled 1 [102], TPT1): −0.42 log 2
- L/H ratio of acetylated peptide (GK(ac)YMLVR (SEQ ID NO: 377), Carbohydrate sulfotransferase 1 [296], CHST1): 1.00 log 2
- L/H ratio of acetylated peptide (GLAPQNK(ac)PELQK (SEQ ID NO: 393), Isoform 2 of Protein FAM107B [225], FAM107B): 0.69 log 2
- light to heavy ratio (L/H ratio) of acetylated peptide, log 2 scale (GLFIIDDK(ac)GILR (SEQ ID NO: 197), Peroxiredoxin-1 [136], PRDX1): 0.00
- L/H ratio of acetylated peptide LVK(ac)VWNLANCK (SEQ ID NO: 39) (GNB2L1 [175], log 2 scale, drug vs DMSO): 0.00
- L/H ratio of acetylated peptide IIVDELK(ac)QEVISTSSK (SEQ ID NO: 38) (GNB2L1 [271], log 2 scale, drug vs DMSO): 0.00
- L/H ratio of acetylated peptide (GNTPK(ac)[…] (SEQ ID NO: 449), Nucleolar protein 56 [347], SNORD110, SNORD86, NOP56): −0.41 log 2
- L/H ratio of acetylated peptide (ac)AHYNFK(ac)K (SEQ ID NO: 40) (GTPBP4 [7], log 2 scale, drug vs DMSO): 0.00
- L/H ratio of acetylated peptide (GYGFGLIK(ac)LDLK (SEQ ID NO: 465), Voltage-dependent anion-selective channel protein 1 [28], VDAC1): −0.57 log 2
- light to heavy ratio (L/H ratio) of acetylated peptide, log 2 scale (GYLTK(ac)EDLR (SEQ ID NO: 216), Protein S100-A10 [28], S100A10): 0.00
- light to heavy ratio (L/H ratio) of acetylated peptide (ac)[…](ac)PGECLR (SEQ ID NO: 575) (Galectin-1 [13], gene LGALS1, inhibitor:DMSO): 0.00 log 2
- light to heavy ratio (L/H ratio) of acetylated peptide ISGASEK(ac)[…] (SEQ ID NO: 543) (Glutamate dehydrogenase 1 mitochondrial [503], gene GLUD1, inhibitor:DMSO): 0.00 log 2
- light to heavy ratio (L/H ratio) of acetylated peptide […](ac)YDNSLK (SEQ ID NO: 620) (Glyceraldehyde-3-phosphate dehydrogenase [139], gene GAPDH, inhibitor:DMSO): 0.00 log 2
- light to heavy ratio (L/H ratio) of acetylated peptide VVK(ac)QASEGPLK (SEQ ID NO: 597) (Glyceraldehyde-3-phosphate dehydrogenase [263], gene GAPDH, inhibitor:DMSO): 0.00 log 2
- light to heavy ratio (L/H ratio) of acetylated peptide AHLQK(ac)LMSDK (SEQ ID NO: 549) (Glycyl-tRNA synthetase [224], gene GARS, inhibitor:DMSO): 0.00 log 2
- light to heavy ratio (L/H ratio), log 2 scale, acetylated peptide LLLLGAGESGK(ac)STIVK (SEQ ID NO: 769) (Guanine nucleotide-binding protein G(olf) subunit alpha [55], gene GNAL, drug:DMSO): 0.00
- L/H ratio of acetylated peptide AGGK(ac)AGK(ac)DSGK (SEQ ID NO: 15) (H2AFV [5:8], log 2 scale, drug vs DMSO): 0.95
- light to heavy ratio (L/H ratio) of acetylated peptide FSPDDK(ac)YSR (SEQ ID NO: 504) (H/ACA ribonucleoprotein complex subunit 3 [40], gene NOP10, inhibitor:DMSO): 0.00 log 2
- L/H ratio of acetylated peptide GQQQVFK(ac)GLNDK (SEQ ID NO: 41) (HADHA [406], log 2 scale, drug vs DMSO): 0.00
- L/H ratio of acetylated peptide EPVAVLK(ac)ANR (SEQ ID NO: 9) (HEXB [161], log 2 scale, drug vs DMSO): −0.40
